The values below come from PubChem BioAssay (NCI).

Several values for one entry are separate records, joined by “and”; a condition that tells them apart may be missing. Equal entries are not always repeated.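 Cultured in 96-well plates, cells were exposed to test compound for 48 hours across five concentrations. GI50: concentration for 50% inhibition of growth. TGI denotes the concentration required for complete inhibition of growth.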

Some test systems named below: NCI-H460 lung; SNB-75 CNS; IGROV1 ovarian; HT29 colon; CAKI-1 renal; KM12 colon; HL-60(TB) leukemia; CCRF-CEM leukemia; NCI/ADR-RES ovarian.
What all share (assay): NCI tumour cell line growth inhibition, 48 h

With `C=C(/C=C/C=C(\CO)CCC=C(C)C)[C@H]1CCC2([C@H](CCCO)/C(=C(/C)C=O)CC[C@]2(C)O)[C@H]1O` (stereo partly specified), the TGI in the test with NCI-H460 lung, in the test with SNB-75 CNS, in the test with IGROV1 ovarian, with HT29 colon, with CAKI-1 renal and in the test on KM12 colon was greater than 100 µM throughout. Further, the TGI with HL-60(TB) leukemia and in the test with CCRF-CEM leukemia was greater than 100 µM throughout.
In the case of `O=C(Cc1csc2nc(-c3ccc(Br)cc3)cn12)N/N=C/c1ccccc1O`, the GI50 in the test on NCI-H460 lung was 15.7 µM; in the test with SNB-75 CNS, 13 µM; in the test with IGROV1 ovarian it was 1.04 µM; with HT29 colon, 5.97 µM; with CAKI-1 renal it was 0.397 µM; with NCI/ADR-RES ovarian, 2.53 µM. The GI50 is 3.62 µM in the test on KM12 colon and 1.81 µM in the test with CCRF-CEM leukemia. The TGI with NCI-H460 lung is greater than 100 µM; in the test on SNB-75 CNS it was 32 µM; in the test with IGROV1 ovarian it was 11.5 µM; in the test on HT29 colon, 19.2 µM; in the test on CAKI-1 renal, 2.4 µM; in the test with NCI/ADR-RES ovarian it was 6.83 µM. In addition, the results for the TGI with KM12 colon and in the test on CCRF-CEM leukemia were 16.8 µM and 8.41 µM, respectively.
Turning to `C#CCN(CCCOc1ccc(Cl)cc1Cl)CCCSC(=O)CCCCCN1/C(=C\C=C2/CCCC(/C=C/C3=[N+](CCCCCC(=O)[O-])c4ccccc4C3(C)C)=C2Cl)C(C)(C)c2ccccc21`, the GI50 with NCI-H460 lung is 1.77 µM; in the test on SNB-75 CNS it was 1.3 µM; in the test with IGROV1 ovarian, 1.42 µM; in the test with HT29 colon, 2.49 µM; in the test on NCI/ADR-RES ovarian, 20.2 µM; in the test on KM12 colon, 1.56 µM. For the same compound, the GI50 is 1.62 µM with HL-60(TB) leukemia and 0.344 µM in the test on CCRF-CEM leukemia. Moreover, the TGI with NCI-H460 lung turned out to be 5.01 µM; in the test on SNB-75 CNS it was 3.85 µM; in the test on IGROV1 ovarian, 3.34 µM; in the test with HT29 colon it was 6.47 µM; with NCI/ADR-RES ovarian it was 62.3 µM; in the test on KM12 colon it was 4.46 µM. For the same compound, the figures for the TGI with HL-60(TB) leukemia and in the test on CCRF-CEM leukemia were 4.79 µM and 4.38 µM, respectively.
Turning to `Clc1ccc(/C=C/c2csnn2)cc1`, the TGI in the test with NCI-H460 lung, in the test with SNB-75 CNS, in the test with IGROV1 ovarian, in the test on HT29 colon, with CAKI-1 renal and in the test on KM12 colon was greater than 100 µM throughout. Besides, the TGI in the test on HL-60(TB) leukemia and with CCRF-CEM leukemia was greater than 100 µM each time.
As to `O=C(CC/C(CC(=O)c1ccc(Cl)cc1)=N\O)Nc1cccc(Cl)c1`, the TGI with NCI-H460 lung, in the test on SNB-75 CNS, with IGROV1 ovarian, with HT29 colon, in the test on CAKI-1 renal and in the test on KM12 colon was greater than 100 µM each time. In the test with CCRF-CEM leukemia, this compound displayed a TGI greater than 100 µM.
Regarding `NC(=O)C1C(=O)Oc2cccnc21` (stereo unspecified), the TGI with NCI-H460 lung, in the test with SNB-75 CNS, in the test with IGROV1 ovarian, with HT29 colon, with KM12 colon and in the test on CCRF-CEM leukemia was greater than 100 µM in each case.
As to `Cc1cn([C@H]2CN(O)C[C@@H](CO)O2)c(=O)[nH]c1=O`, the TGI with NCI-H460 lung, in the test on SNB-75 CNS, in the test on IGROV1 ovarian, in the test with CAKI-1 renal, in the test on KM12 colon and in the test with HL-60(TB) leukemia was greater than 100 µM throughout.
Turning to `Cc1ccc(/C=C2\CCCC(C(NO)c3ccc(C)cc3)C2=NO)cc1` (stereo unspecified), the TGI is 62.6 µM in the test on NCI-H460 lung; 98.2 µM with SNB-75 CNS; greater than 100 µM in the test with IGROV1 ovarian; 37.9 µM with HT29 colon; greater than 100 µM in the test with CAKI-1 renal; 45.1 µM with KM12 colon. In addition, the TGI in the test with HL-60(TB) leukemia amounted to 40.1 µM; in the test with CCRF-CEM leukemia it was 49.8 µM.
In the case of `COc1ccc(C2NC(c3ccc(OC)cc3)C(C)C(=O)C2C)cc1` (stereo unspecified), the TGI with NCI-H460 lung, in the test on SNB-75 CNS, with IGROV1 ovarian, in the test with HT29 colon, in the test on KM12 colon and with HL-60(TB) leukemia was greater than 100 µM in each case. The compound further returned a TGI in the test on CCRF-CEM leukemia greater than 100 µM.
For `O=C(Cn1ccnc1[N+](=O)[O-])NCc1ccc(F)cc1`, the TGI in the test with NCI-H460 lung, in the test on SNB-75 CNS, with IGROV1 ovarian, in the test with HT29 colon, in the test with CAKI-1 renal and in the test on KM12 colon was greater than 100 µM each time. Also, the TGI in the test with HL-60(TB) leukemia and with CCRF-CEM leukemia was greater than 100 µM throughout.
Consider `CCOc1ccccc1NC(=O)C1=C(C)NC(C)=C(C(=O)Nc2ccccc2OCC)C1c1ccc2c(c1)OCO2`, for which the TGI was greater than 100 µM in the test with NCI-H460 lung; 35.3 µM in the test on SNB-75 CNS; greater than 100 µM in the test on IGROV1 ovarian; greater than 100 µM in the test with HT29 colon; greater than 100 µM in the test with CAKI-1 renal; 50.7 µM in the test on KM12 colon. Also, the TGI with HL-60(TB) leukemia was 45.3 µM; with CCRF-CEM leukemia it was 85.1 µM.
`CC(=O)O[C@H]1C(=O)[C@@]2(C)C([C@H](OC(=O)c3ccccc3)[C@]3(O)C[C@H](OC(=O)[C@H](O)[C@@H](NC(=O)c4ccc(Cl)cc4)c4ccccc4)C(C)=C1C3(C)C)C1(OC(C)=O)CO[C@@H]1C[C@@H]2O` (stereo partly specified): the TGI was 25 µM and > 100 µM with NCI-H460 lung; 0.603 µM and 0.178 µM with SNB-75 CNS; 25 µM and 28.2 µM with IGROV1 ovarian; 10.4 µM with HT29 colon; 25 µM and 32.3 µM in the test with CAKI-1 renal; 25 µM in the test on NCI/ADR-RES ovarian. Besides, the TGI with KM12 colon was determined as 25 µM; in the test with HL-60(TB) leukemia, 0.00466 µM; with CCRF-CEM leukemia, 52.2 µM. The GI50 in the test on IGROV1 ovarian was 0.0134 µM; in the test on CAKI-1 renal, 0.0269 µM.
In the case of `CC1(C)N=C(N)N=C(N)N1c1ccc(CCCCCCc2ccc(S(=O)(=O)F)cc2)cc1`, the TGI was greater than 37.8 µM in the test on NCI-H460 lung; 24.8 µM with SNB-75 CNS; 30.8 µM with IGROV1 ovarian; 17.1 µM with HT29 colon; 44.3 µM in the test with CAKI-1 renal; 70.9 µM with NCI/ADR-RES ovarian. In addition, the TGI with HL-60(TB) leukemia was greater than 37.3 µM.
